Where two headings read alike, the source gives them in different places. Bounds are passed on as bounds.

Assay [1] concerns A. tumefaciens NT1(pZLR4) traG-lacZ reporter fusion. In words: QSI activity on A. tumefaciens AHL-bioindicator (traG-lacZ β-galactosidase). It is filed as cell-based, Agrobacterium tumefaciens. As to conditions: for QSI hit in library screening: second screening: compounds at 5 µg/ml, C8-HSL 10 nM, A. tumefaciens biosensor. The protocol:
Two bacterial QS-signal biosensors were used. Chromobacterium violaceum CV026 [41] was grown in Luria-Bertani modified (LBm) medium, in which the NaCl concentration was 5 g/l instead of 10 g/l. Agrobacterium tumefaciens NT1(pZLR4) was grown in AB minimal medium supplemented with mannitol (0.2%). After supplementation with appropriate AHL, each of the QS-biosensors expresses a reporting activity, which is the production of the pigment violacein in C. violaceum CV026 and that of β-galactosidase from the transcriptional fusion traG::lacZ in A. tumefaciens NT1(pZLR4).
When the screening was performed, the chemical library of the Institut de Chimie des Substances Naturelles (ICSN, Gif-sur-Yvette, France) contained more than 3500 synthetic and natural compounds, which were individually dissolved in dimethylsulfoxide (DMSO) at 1mg/ml and stored in 96 microwell plates. A first screening was performed by mixing biosensor CV026 with the AHL hexanoylhomoserine lactone (C6-HSL) at 0.5 µM and the tested compounds at 50 µg/ml. Final volume was adjusted to 100 µl with a synthetic medium (10% LBm and 0.4% sucrose). After 24 hours of incubation at 30°C, the presence or absence of violacein pigment was quoted by visual reading. […] Final volume was adjusted to 100 µl by the addition of AB minimal medium supplemented with mannitol (0.2%) and TY medium (10%). After 4 hours of incubation at 30°C, β-galactosidase activity was measured in A. tumefaciens cultures as previously described. In the two screenings, 4-nitropyridine-N-oxide (4-NPO) was used as a QSI reference. […]

In assay [2] the test system is Agrobacterium biosensor cells. Kind of assay: Minimal inhibitory concentration (MIC). It is filed as cell-based, Agrobacterium tumefaciens. As to conditions: 10^5 CFU/ml, 36 h at 30°C. How it is done: Aside from the effect of QSI on QS regulation, the toxicity of these compounds was tested on bacterial cells by measuring two parameters: the minimal inhibitory concentration (MIC) and minimal bactericidal concentration (MBC). MIC, which is the lowest concentration of QSI (µg/ml) inhibiting any visible culture after 36 h of incubation at 30°C, was estimated by culturing 10^5 CFU/ml of the Agrobacterium biosensor cells in the presence of different concentrations of the QSI. MBC, which is the lowest concentration of QSI (µg/ml) that results in a 99.9% reduction of the initial bacterial population (10^5 CFU/ml) after 36 h of incubation at 30°C in the presence of different concentrations of QSI, was estimated by plating 100 µL of the Agrobacterium cultures on agar LBm plates. After an incubation of 48 h at 30°C, CFU were counted and the MBC values were calculated.

Broadly, the IC50 is the midpoint of a concentration-inhibition curve. As a reminder, the MIC is the least concentration at which growth counts as inhibited. With “3-Hydroxy-13-methyl-6,7,8,9,11,12,13,14,15,17-decahydro-cyclopenta[a] phenanthren-16-one [Compound 729, reference compound]”, the “QSI hit in library screening” value in assay [1] is recorded as “hits”. The IC50 in assay [1] (β-galactosidase activity of Agrobacterium biosensor in presence of AHL (C8-HSL 10 nM), QSI 1.5 to 100 µg/ml) amounted to 75 µg/mL. Moreover, in assay [2], the MIC was over 100 µg/mL.
Take `CN(C)CCc1ccc(O)cc1` [Compound 3499, hordenine]: the inhibition at 100 µg/mL in assay [1] (Agrobacterium tumefaciens, read-out: inhibition (%) at 100 µg/ml) stood at 19%. Also, the “QSI hit in library screening” value in assay [1] was “hits”. In addition, the MIC in assay [2] (Agrobacterium, read-out: MIC) was over 100 µg/mL.
As to `C[C@]12CC[C@@H]3c4ccc(O)cc4CC[C@H]3[C@@H]1C[C@@H](O)[C@@H]2O` [Estriol, estriol], in assay [2] (Agrobacterium, read-out: MIC), the MIC is over 100 µg/mL.

Values taken from article PMC3871529, “At a Supra-Physiological Concentration, Human Sexual Hormones Act as Quorum-Sensing Inhibitors” (PLoS ONE, 2013).
